Measured values as given in ChEMBL document CHEMBL5537109, “Natural products as potential lead compounds to develop new antiviral drugs over the past decade” (Eur J Med Chem, 2023).

Target: Neuraminidase (Influenza A virus (A/Puerto Rico/8/1934(H1N1)), UniProt P03468, H274Y)
Test: Inhibition of influenza A virus H1N1 neuraminidase H274Y mutant

C[C@@H]1C[C@H](C)C(=O)[C@@H]2O[C@@H]2[C@@H]2[C@@H](O)[C@@H]3OC4=C(C(=O)O[C@@]42C[C@H]3C)C1=O
IC50: > 44.2 µM
